Relative viability data for 3 cell lines are collected here from the supplement of paper PMC10307832.

What all share (assay): relative viability (nuclei count vs DMSO), 5 days (fraction); higher = more cells survive
Compound in the assay “CAP-232 + Olaparib”: C[C@H]([C@@H](C(=O)N)NC(=O)[C@@H]1CSSC[C@@H](C(=O)N[C@H](C(=O)N[C@@H](C(=O)N[C@H](C(=O)N1)CCCCN)CC2=CNC3=CC=CC=C32)CC4=CC=C(C=C4)O)NC(=O)[C@@H](CC5=CC=CC=C5)N)O [CAP-232] + O=C(c1cc(Cc2n[nH]c(=O)c3ccccc23)ccc1F)N1CCN(C(=O)C2CC2)CC1 [Olaparib] (partner 8 µM)
A digest of the protocol: (§1)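 Relative viability is defined as nuclei in treated wells over nuclei in vehicle wells. Duplicate plates were run and medians reported. Lung cancer cell lines in 1536-well plates were dosed by pin tool one day after seeding, with one drug or with a fixed anchor-drug dose plus five library-drug doses (not always all listed) in √10 steps, and nuclei were counted after 5 days.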

Compound in the assay “CAP-232 + Linsitinib”: C[C@H]([C@@H](C(=O)N)NC(=O)[C@@H]1CSSC[C@@H](C(=O)N[C@H](C(=O)N[C@@H](C(=O)N[C@H](C(=O)N1)CCCCN)CC2=CNC3=CC=CC=C32)CC4=CC=C(C=C4)O)NC(=O)[C@@H](CC5=CC=CC=C5)N)O [CAP-232] + C[C@]1(O)C[C@@H](c2nc(-c3ccc4ccc(-c5ccccc5)nc4c3)c3c(N)nccn32)C1 [Linsitinib] (partner 1 µM)
Summed up: as §1

Compound in the assay “CAP-232 + AZD7762”: C[C@H]([C@@H](C(=O)N)NC(=O)[C@@H]1CSSC[C@@H](C(=O)N[C@H](C(=O)N[C@@H](C(=O)N[C@H](C(=O)N1)CCCCN)CC2=CNC3=CC=CC=C32)CC4=CC=C(C=C4)O)NC(=O)[C@@H](CC5=CC=CC=C5)N)O [CAP-232] + NC(=O)Nc1cc(-c2cccc(F)c2)sc1C(=O)N[C@H]1CCCNC1 [AZD7762] (partner 0.2 µM)
Summed up:
as §1

Compound in the assay “CAP-232 + Luminespib”: C[C@H]([C@@H](C(=O)N)NC(=O)[C@@H]1CSSC[C@@H](C(=O)N[C@H](C(=O)N[C@@H](C(=O)N[C@H](C(=O)N1)CCCCN)CC2=CNC3=CC=CC=C32)CC4=CC=C(C=C4)O)NC(=O)[C@@H](CC5=CC=CC=C5)N)O [CAP-232] + CCNC(=O)c1noc(-c2cc(C(C)C)c(O)cc2O)c1-c1ccc(CN2CCOCC2)cc1 [Luminespib] (partner 0.01 µM)
A digest of the protocol: as §1

Compound in the assay “CAP-232 + Palbociclib”: C[C@H]([C@@H](C(=O)N)NC(=O)[C@@H]1CSSC[C@@H](C(=O)N[C@H](C(=O)N[C@@H](C(=O)N[C@H](C(=O)N1)CCCCN)CC2=CNC3=CC=CC=C32)CC4=CC=C(C=C4)O)NC(=O)[C@@H](CC5=CC=CC=C5)N)O [CAP-232] + CC(=O)c1c(C)c2cnc(Nc3ccc(N4CCNCC4)cn3)nc2n(C2CCCC2)c1=O [Palbociclib] (partner 0.5 µM)
Summed up:
as §1

Take NCI-H1793: the relative viability with CAP-232 + Olaparib (first compound 0.4 µM) is 0.921; in the assay with CAP-232 + Olaparib (first compound 1.265 µM), 0.922; with CAP-232 + Olaparib (first compound 4 µM), 1.04; with CAP-232 + Olaparib (first compound 12.65 µM) it was 0.877; in the assay with CAP-232 + Linsitinib (first compound 0.4 µM), 1.09; in the assay with CAP-232 + Linsitinib (first compound 1.265 µM) it was 1.06. In addition, the relative viability with CAP-232 + Linsitinib (first compound 4 µM) was determined as 0.652; in the assay with CAP-232 + Linsitinib (first compound 12.65 µM), 0.801; in the assay with CAP-232 + AZD7762 (first compound 0.4 µM), 0.437; with CAP-232 + AZD7762 (first compound 1.265 µM) it was 0.618; with CAP-232 + AZD7762 (first compound 4 µM), 0.518; with CAP-232 + AZD7762 (first compound 12.65 µM) it was 0.524. The relative viability was determined as 0.199 with CAP-232 + Luminespib (first compound 0.4 µM); 0.195 with CAP-232 + Luminespib (first compound 1.265 µM); 0.451 with CAP-232 + Luminespib (first compound 4 µM); 0.165 in the assay with CAP-232 + Luminespib (first compound 12.65 µM); 0.401 with CAP-232 + Palbociclib (first compound 0.4 µM); 0.313 with CAP-232 + Palbociclib (first compound 1.265 µM). For the same cell line, the relative viability with CAP-232 + Palbociclib (first compound 4 µM) was found to be 0.303; with CAP-232 + Palbociclib (first compound 12.65 µM), 0.324.

In the case of NCI-H1915, the relative viability in the assay with CAP-232 + Olaparib (first compound 0.4 µM) was 0.243; in the assay with CAP-232 + Olaparib (first compound 1.265 µM), 0.248; with CAP-232 + Olaparib (first compound 4 µM), 0.249; with CAP-232 + Olaparib (first compound 12.65 µM), 0.267; with CAP-232 + Linsitinib (first compound 0.4 µM), 1.08; with CAP-232 + Linsitinib (first compound 1.265 µM) it was 1.1. The relative viability with CAP-232 + Linsitinib (first compound 4 µM) is 1.08; with CAP-232 + Linsitinib (first compound 12.65 µM), 0.986; with CAP-232 + AZD7762 (first compound 0.4 µM), 0.771; with CAP-232 + AZD7762 (first compound 1.265 µM), 0.685; in the assay with CAP-232 + AZD7762 (first compound 4 µM) it was 0.704; in the assay with CAP-232 + AZD7762 (first compound 12.65 µM), 0.762. Further, the relative viability in the assay with CAP-232 + Luminespib (first compound 0.4 µM) was 0.946; with CAP-232 + Luminespib (first compound 1.265 µM), 0.798; in the assay with CAP-232 + Luminespib (first compound 4 µM), 0.806; with CAP-232 + Luminespib (first compound 12.65 µM) it was 0.736; with CAP-232 + Palbociclib (first compound 0.4 µM), 0.5; with CAP-232 + Palbociclib (first compound 1.265 µM), 0.538. For the same cell line, the results for the relative viability in the assay with CAP-232 + Palbociclib (first compound 4 µM) and with CAP-232 + Palbociclib (first compound 12.65 µM) were 0.524 and 0.511, respectively.

Consider NCI-H1944, for which the relative viability is 0.385 in the assay with CAP-232 + Olaparib (first compound 0.4 µM); 0.368 with CAP-232 + Olaparib (first compound 1.265 µM); 0.411 in the assay with CAP-232 + Olaparib (first compound 4 µM); 0.357 with CAP-232 + Olaparib (first compound 12.65 µM); 1.3 with CAP-232 + Linsitinib (first compound 0.4 µM); 1.13 in the assay with CAP-232 + Linsitinib (first compound 1.265 µM). The relative viability with CAP-232 + Linsitinib (first compound 4 µM) turned out to be 1.14; with CAP-232 + Linsitinib (first compound 12.65 µM), 1.07; in the assay with CAP-232 + AZD7762 (first compound 0.4 µM), 0.516; with CAP-232 + AZD7762 (first compound 1.265 µM) it was 0.476; with CAP-232 + AZD7762 (first compound 4 µM), 0.452; in the assay with CAP-232 + AZD7762 (first compound 12.65 µM), 0.367. In addition, the relative viability in the assay with CAP-232 + Luminespib (first compound 0.4 µM) came out at 0.709; with CAP-232 + Luminespib (first compound 1.265 µM), 0.695; with CAP-232 + Luminespib (first compound 4 µM) it was 0.78; with CAP-232 + Luminespib (first compound 12.65 µM) it was 0.667; in the assay with CAP-232 + Palbociclib (first compound 0.4 µM) it was 0.393; with CAP-232 + Palbociclib (first compound 1.265 µM) it was 0.31. Further, the relative viability with CAP-232 + Palbociclib (first compound 4 µM) worked out at 0.326; with CAP-232 + Palbociclib (first compound 12.65 µM) it was 0.325.
